Measurements from patent publication US9029092B2, “Solution phase homogeneous assays” (Beckman Coulter, Inc., priority 2009, dated 2015).

Tested on: PSA
Test: Assay of PSA with direct-labeled sbp's (Ab1-AK11, Ab2-HRP) with and without SSIA
Format: biochemical, human
Settings: 600 μM ascorbic acid solution
Procedure: The Ab1-AK11 conjugate was provided in PBS, pH 7.4 at 10 μg/ml. The Ab2-HRP conjugate was provided in PBS, pH 7.4 at 0.25 μg/ml. […] For comparison without SSIA, in a second reaction vessel, 25 μl of Ab1-AK11 conjugate, 25 μl of water, 25 μl of Ab2-HRP conjugate were added to 25 μl of sample and incubated for 15 minutes.
Each sample was analyzed according to the above assay method in triplicate. The RLU data collected for each assayed sample during the time interval of 495 milliseconds starting 125 milliseconds from start of trigger solution introduction into the reaction vessel was summed for each individual run, averaged over the triplicates for each sample and presented in Table 13. A ratio of signal to noise (S/S0) was calculated at each concentration value.

SMILES: O=C1O[C@H]([C@@H](O)CO)C(O)=C1O [Ascorbic Acid]
- RLU, With SSIA (PSA 0.0 ng/mL): 180 RLU
- S/S0, With SSIA (PSA 0.0 ng/mL): 1.0
- RLU, With SSIA (PSA 0.4 ng/mL): 324 RLU
- S/S0, With SSIA (PSA 0.4 ng/mL): 1.8
- RLU, With SSIA (PSA 7.0 ng/mL): 3032 RLU
- S/S0, With SSIA (PSA 7.0 ng/mL): 16.8
- RLU, With SSIA (PSA 101.6 ng/mL): 23119 RLU
- S/S0, With SSIA (PSA 101.6 ng/mL): 128.4
